From publication PMC9553667, “Pharmacokinetic Analysis of Diosgenin in Rat Plasma by a UPLC-MS/MS Approach” (Journal of Analytical Methods in Chemistry, 2022)
Where two headings read alike, the source gives them in different places.

What was measured:
[1] = format: in vitro ADME, rat; details: –20°C for 30 days, 25°C for 8 h, three freeze-thaw cycles, 4°C in an autosampler for 12 h
[2] = format: in vitro ADME, rat; details: n = 6; for Measured concentration, autosampler stability: processed rat plasma, autosampler 4°C for 24 h; for Measured concentration, short-term stability / Measured concentration, freeze-thaw stability / Measured concentration, long-term stability: rat plasma; for Measured concentration, short-term stability: 25°C for 8 h; for Measured concentration, long-term stability: −20°C for 30 days
Description: Standard working solutions of diosgenin and IS were prepared by diluting stock solutions (100 μg/ml) with methanol. A series of calibration standards and QC working solutions were serially diluted with methanol from the standard solution. The working solutions were diluted with drug-free rat plasma at concentrations of 0.5, 1, 5, 50, 200, 1000, and 1,500 ng/ml. Similarly, the QC samples were made up at 5, 50, and 1,000 ng/ml, and IS was 42 ng/ml. All samples were immediately stored at −20°C.
QC samples in rat plasma at three concentrations were analyzed by assessing the stability of diosgenin under four conditions. Long-term stability was investigated by assaying QC samples kept at −20°C for 30 days. The short-term stability of QC samples was assessed for 8-h storage at 25°C. Freeze-thaw stability was determined by analyzing QC samples after three freeze-thaw cycles (−40°C to 25°C). Postpreparative stability was evaluated after a 24-h placement of QC samples in an autosampler at 4°C after preparation. When the accuracy and the precision were both within ±15% after the four tests, the stabilities were guaranteed.

in vivo = assay: in vivo; set-up: species or system Male Sprague-Dawley rats; details: rat
Description: Liquid chromatography was performed using a UPLC system (Waters Corp., Milford, MA, USA) interfaced to a Q-Trap 5500 triple-quadruple mass spectrometer (AB SCIEX, Beijing, China) equipped with an electrospray ionization (ESI) source, as previously described. The isolation was performed on a Waters ACQUITY UPLC BEH C18 rapid resolution high definition column (2.1 × 50 mm, 1.7 μm) at 35°C. The temperature of the UPLC autosampler was 4°C. The mobile phase was mixed with acetonitrile and water (80 : 20, v/v, containing 0.03% formic acid in water). The flow rate was run at 0.3 ml/min. The injection volume was 2 μl, with a total running time of 5 min.
The positive ion multiple reaction monitoring (MRM) mode was used for quantification analysis in the mass analyzers, with the transitions of m/z 415.2⟶271.2 for diosgenin with fragment or voltage of 71.96 V and 295.2⟶277.1 for the IS with fragment or voltage of 120 V. The collision voltages for diosgenin and IS were 23.03 and 25.92 eV, respectively. The other settings were as follows: capillary voltage, 5.5 kV; source temperature, 500°C; curtain gas, 35 Psi; GS1, 50 Psi; GS2, 50 Psi.
Blank plasma samples were obtained from control Sprague-Dawley rats (n = 6). Briefly, 50 μl of the IS solution and 50 μl of plasma were added to a 0.5-ml Eppendorf tube and vortex mixed for 30 s. Methanol-acetonitrile (250 μl; 50 : 50, v/v) was added to the Eppendorf tube, and then, the sample was vortex mixed for 2 min. After centrifuging at 15,000 rpm for 15 min, the supernatants were injected into the UPLC-MS/MS system.
Male Sprague-Dawley rats (n = 12) weighing 180–220 g were supplied by Beijing Vital River Laboratory Animal Technology Co., Ltd. (Beijing, China; license number SCXK2018-0006). According to the ARRIVE guidelines, all experimental rats were kept under appropriate conditions, including proper humidity, temperature, light, diet, and water. Before starting the experiments, the rats were domesticated for 10 days under laboratory conditions to minimize their suffering. All experimental procedures were performed according to the Animal Care and Use Committee of Chengde Medical University (ethical approval no. CDMULAC-20180410016; Chengde, China). The rats were divided into two groups and were orally administered 100 mg/kg diosgenin and ASD (equivalent to 100 mg/kg diosgenin) suspended in a 0.5% w/v CMC–Na aqueous solution.
The caged rats were fasted (water provided ad libitum) for 12 h before the experiment. Before and after single administration of diosgenin, 0.15 ml blood was collected from the inner canthus under 2.5% isoflurane anesthesia in a heparinized blood collection vessel. The blood collection time points were 0.083, 0.25, 0.5, 0.75, 1, 2, 3, 4, 6, 8, 12, 24, 36, 48, and 72 h. Plasma was obtained after centrifugation for 15 min at 15,000 rpm and then stored at –80°C until analysis.
The pharmacokinetic parameters were calculated using noncompartmental pharmacokinetics data analysis software of DAS 3.0 (Drug and Statistics software, Drug Clinical Research Center, Shanghai University of Traditional Chinese Medicine, Shanghai, China). Relative bioavailability (F) was calculated according to the following formula:(1) F%=AUC0⟶∞diosgenin ASD/AUC0⟶∞diosgenin×100%.

[3] = set-up: method as in PMID 24954725; details: rats; cited from earlier work
[4] = set-up: method as in PMID 23073665, PMID 20671764; details: cited from earlier work
[5] = male, Sprague-Dawley, po, 100 mg/kg

C[C@@H]1CC[C@@]2(OC1)O[C@H]1C[C@H]3[C@@H]4CC=C5C[C@@H](O)CC[C@]5(C)[C@H]4CC[C@]3(C)[C@H]1[C@@H]2C [Diosgenin]
Stability in plasma under the storage conditions [1]: remained stable
Measured concentration, autosampler stability ([2]; indicated 5 ng/ml): 5.32 ± 0.37 ng/mL
Measured concentration, autosampler stability ([2]; indicated 50 ng/ml): 50.59 ± 3.69 ng/mL
Measured concentration, autosampler stability ([2]; indicated 1000 ng/ml): 1001.01 ± 62.63 ng/mL
Measured concentration, short-term stability ([2]; indicated 5 ng/ml): 5.41 ± 0.33 ng/mL
Measured concentration, short-term stability ([2]; indicated 50 ng/ml): 50.23 ± 2.56 ng/mL
Measured concentration, short-term stability ([2]; indicated 1000 ng/ml): 1000.88 ± 44.34 ng/mL
Measured concentration, freeze-thaw stability ([2]; three freeze-thaw cycles (−40°C to 25°C), indicated 5 ng/ml): 5.98 ± 0.35 ng/mL
Measured concentration, freeze-thaw stability ([2]; three freeze-thaw cycles, indicated 50 ng/ml): 51.69 ± 4.36 ng/mL
Measured concentration, freeze-thaw stability ([2]; three freeze-thaw cycles, indicated 1000 ng/ml): 1002.9 ± 54.44 ng/mL
Measured concentration, long-term stability ([2]; indicated 5 ng/ml): 5.99 ± 0.28 ng/mL
Measured concentration, long-term stability ([2]; indicated 50 ng/ml): 50.02 ± 3.72 ng/mL
Measured concentration, long-term stability ([2]; indicated 1000 ng/ml): 1001.65 ± 42.42 ng/mL
CL/F (in vivo; male, Sprague-Dawley, oral, 100 mg/kg diosgenin or equivalent, mean ± SD, n = 6, read-out: CLz/F (converted)): 207 mL/min/kg
Vd/F (in vivo; male, Sprague-Dawley, oral, 100 mg/kg diosgenin or equivalent, mean ± SD, n = 6, read-out: Vz/F): 231 ± 161 L/kg
half-life (in vivo; male, Sprague-Dawley, oral, 100 mg/kg diosgenin or equivalent, mean ± SD, n = 6, read-out: t1/2z (converted)): 12.3 ± 3.02 h
Cmax (in vivo; [5]): 480 ± 121 ng/mL
MRT last (in vivo; [5]): 22.8 ± 5.55 h
Tmax (in vivo; [5]): 8.73 ± 5.74 h
AUC0-t (in vivo; po, 100 mg/kg): 9,302.27 ± 5,013.38 μg/l∗h
AUC0-∞ (in vivo; po, 100 mg/kg): 9,598.01 ± 5,151.91 μg/l∗h
Absolute bioavailability [3]: approximately 7%
Aqueous solubility [4]: poor aqueous solubility
